Results reported in patent US8785429B2, “Dihydropyrrolonaphthyridinone compounds as inhibitors of JAK” (Takeda Pharmaceutical Company Limited, priority 2009, dated 2014).

Columns and labels:
[1] = molecular target: T1, JAK3 (Homo sapiens, UniProt P52333); experiment: Assay for JAK3 Inhibition (phosphorylation of FAM-labeled substrate, Caliper LC-3000); type: biochemical; conditions: −log10(IC50), IC50 is the molar concentration at 50% inhibition; read-out: JAK3 pIC50 (converted)
T1 construct: purchased Invitrogen
T1 sequence (P52333 1-1124): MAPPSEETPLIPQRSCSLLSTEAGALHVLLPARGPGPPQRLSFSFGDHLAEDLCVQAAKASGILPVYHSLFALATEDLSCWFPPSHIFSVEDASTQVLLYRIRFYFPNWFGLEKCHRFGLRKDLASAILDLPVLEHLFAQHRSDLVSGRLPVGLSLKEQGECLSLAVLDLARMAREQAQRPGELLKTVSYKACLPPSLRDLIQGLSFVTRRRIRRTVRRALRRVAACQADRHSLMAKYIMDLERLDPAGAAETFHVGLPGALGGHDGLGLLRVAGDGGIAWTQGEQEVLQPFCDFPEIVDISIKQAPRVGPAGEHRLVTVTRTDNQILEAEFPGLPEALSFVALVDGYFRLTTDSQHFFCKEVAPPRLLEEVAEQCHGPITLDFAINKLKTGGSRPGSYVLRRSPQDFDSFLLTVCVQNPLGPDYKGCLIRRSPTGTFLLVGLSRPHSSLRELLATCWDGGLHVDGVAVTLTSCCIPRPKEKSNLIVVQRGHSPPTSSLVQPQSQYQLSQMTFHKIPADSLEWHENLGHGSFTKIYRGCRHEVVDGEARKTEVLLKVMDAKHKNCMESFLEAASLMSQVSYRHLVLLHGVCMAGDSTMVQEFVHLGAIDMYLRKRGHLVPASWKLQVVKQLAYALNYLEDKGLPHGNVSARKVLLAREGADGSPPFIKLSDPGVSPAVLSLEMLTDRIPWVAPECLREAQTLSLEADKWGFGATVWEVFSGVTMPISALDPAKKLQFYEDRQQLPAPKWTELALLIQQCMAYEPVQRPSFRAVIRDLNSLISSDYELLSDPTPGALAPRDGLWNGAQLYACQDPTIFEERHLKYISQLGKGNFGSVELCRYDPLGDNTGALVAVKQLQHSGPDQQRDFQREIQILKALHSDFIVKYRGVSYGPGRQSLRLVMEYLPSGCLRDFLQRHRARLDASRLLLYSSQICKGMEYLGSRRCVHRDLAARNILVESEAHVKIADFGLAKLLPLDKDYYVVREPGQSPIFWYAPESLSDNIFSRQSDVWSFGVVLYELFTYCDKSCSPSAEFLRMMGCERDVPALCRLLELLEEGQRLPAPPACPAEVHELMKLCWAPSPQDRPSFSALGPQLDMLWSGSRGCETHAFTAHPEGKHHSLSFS

[2] = molecular target: T2, JAK2 (Homo sapiens, UniProt O60674); experiment: Assay for JAK2 Inhibition (phosphorylation of FAM-labeled substrate, Caliper LC-3000); type: biochemical; conditions: −log10(IC50), IC50 is the molar concentration at 50% inhibition; read-out: JAK2 pIC50 (converted)
T2 construct: purchased Invitrogen
T2 sequence (O60674 whole entry): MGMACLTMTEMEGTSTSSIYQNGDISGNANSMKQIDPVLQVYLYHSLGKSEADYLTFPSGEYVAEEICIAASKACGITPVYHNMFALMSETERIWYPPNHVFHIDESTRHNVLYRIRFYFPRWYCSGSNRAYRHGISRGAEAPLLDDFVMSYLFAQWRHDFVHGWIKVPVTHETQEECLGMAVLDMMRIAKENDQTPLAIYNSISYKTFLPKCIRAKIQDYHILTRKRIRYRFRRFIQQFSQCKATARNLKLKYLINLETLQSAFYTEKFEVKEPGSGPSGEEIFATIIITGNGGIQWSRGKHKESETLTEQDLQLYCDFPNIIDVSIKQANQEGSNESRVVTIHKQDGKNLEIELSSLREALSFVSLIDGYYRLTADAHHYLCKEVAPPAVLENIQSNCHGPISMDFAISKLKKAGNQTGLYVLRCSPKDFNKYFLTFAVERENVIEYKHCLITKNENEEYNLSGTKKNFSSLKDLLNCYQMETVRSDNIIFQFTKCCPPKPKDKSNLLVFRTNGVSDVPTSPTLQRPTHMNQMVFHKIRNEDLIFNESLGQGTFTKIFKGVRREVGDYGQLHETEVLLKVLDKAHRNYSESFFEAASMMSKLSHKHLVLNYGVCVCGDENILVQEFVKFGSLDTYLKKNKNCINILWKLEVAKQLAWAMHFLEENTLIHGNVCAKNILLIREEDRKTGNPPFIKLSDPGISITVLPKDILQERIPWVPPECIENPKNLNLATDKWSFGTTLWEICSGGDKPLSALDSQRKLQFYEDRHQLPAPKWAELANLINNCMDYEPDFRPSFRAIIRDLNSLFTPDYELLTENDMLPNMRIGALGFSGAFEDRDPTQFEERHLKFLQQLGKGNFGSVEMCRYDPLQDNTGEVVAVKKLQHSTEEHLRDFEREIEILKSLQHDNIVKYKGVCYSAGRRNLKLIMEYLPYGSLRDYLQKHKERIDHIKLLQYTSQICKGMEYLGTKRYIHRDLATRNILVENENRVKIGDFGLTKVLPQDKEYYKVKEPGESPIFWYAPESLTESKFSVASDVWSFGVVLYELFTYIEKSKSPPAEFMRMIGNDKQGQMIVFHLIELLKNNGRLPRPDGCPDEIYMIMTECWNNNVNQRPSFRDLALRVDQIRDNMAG

| IC50 [1] [nM] | IC50 [2] [nM] | SMILES |
| --- | --- | --- |
| 501 | 79.4 | CC1(N2Cc3c[nH]c4nccc(c34)C2=O)CCN(C(=O)CC#N)CC1 [Example 6, 3-(4-methyl-4-(5-oxopyrrolo[4,3,2-de][2,6]naphthyridin-4(1H,3H,5H)-yl)piperidin-1-yl)-3-oxopropanenitrile] |
| 100 | 79.4 | CCC(CC)N1Cc2c[nH]c3nccc(c23)C1=O [Example 10, 4-(pentan-3-yl)-3,4-dihydropyrrolo[4,3,2-de][2,6]naphthyridin-5(1H)-one] |
| 126 | 2510 | CC(C)[C@H](C(=O)N(C)CC#N)N1Cc2c(F)cnc3[nH]cc(c23)C1=O [Example 79, (R)—N-(cyanomethyl)-2-(6-fluoro-3-oxopyrrolo[4,3,2-de][2,6]naphthyridin-4(1H,3H,5H)-yl)-N,3-dimethylbutanamide] |
| 251 | 3160 | O=C(NC1CCCC1)[C@@H](C1CCCC1)N1Cc2ccnc3[nH]cc(c23)C1=O [Example 27, (R)—N,2-dicyclopentyl-2-(3-oxopyrrolo[4,3,2-de][2,6]naphthyridin-4(1H,3H,5H)-yl)acetamide] |
| 7940 | 3160 | CC(C)(C)OC(=O)N1CCC(CN2Cc3c[nH]c4nccc(c34)C2=O)C1 (centres unmarked) [Example 12, Tert-Butyl 3-((5-oxopyrrolo[4,3,2-de][2,6]naphthyridin-4(1H,3H,5H)-yl)methyl)pyrrolidine-1-carboxylate] |
| 316 | 3980 | CC[C@H](C(=O)N1CCCC1)N1Cc2ccnc3[nH]cc(c23)C1=O [Example 19, (R)-4-(1-oxo-1-(pyrrolidin-1-yl)butan-2-yl)-4,5-dihydropyrrolo[4,3,2-de][2,6]naphthyridin-3(1H)-one] |
| 63.1 | 1000 | CC(C)[C@H](C(=O)N1CC(F)(F)C1)N1Cc2c(F)cnc3[nH]cc(c23)C1=O [Example 76, (R)-4-(1-(3,3-difluoroazetidin-1-yl)-3-methyl-1-oxobutan-2-yl)-6-fluoro-4,5-dihydropyrrolo[4,3,2-de][2,6]naphthyridin-3(1 H)-one] |
| 251 | 5010 | CC(C)[C@H](C(=O)N1CCS(=O)(=O)CC1)N1Cc2c(F)cnc3[nH]cc(c23)C1=O [Example 48, 4-{(1R)-1-[(1,1-dioxidothiomorpholin-4-yl)carbonyl]-2-methylpropyl}-6-fluoro-4,5-dihydropyrrolo[4,3,2-de][2,6]naphthyridin-3(1H)-one] |
| 316 | 2510 | CC(C)[C@H](C(=O)Nc1ccc(C#N)cc1)N1Cc2c(Cl)cnc3[nH]cc(c23)C1=O [Example 35, (R)-2-(6-chloro-3-oxopyrrolo[4,3,2-de][2,6]naphthyridin-4(1H,3H,5H)-yl)-N-(4-cyanophenyl)-3-methylbutanamide] |
| 10 | 126 | CC(C)(C)[C@H](C(=O)NC1CCCC1)N1Cc2ccnc3[nH]cc(c23)C1=O [Example 26, (R)—N-cyclopentyl-3,3-dimethyl-2-(3-oxopyrrolo[4,3,2-de][2,6]naphthyridin-4(1H,3H,5H)-yl)butanamide] |
| 63.1 | 1580 | CC[C@@H](CC#N)NC(=O)[C@@H](C(C)C)N1Cc2c(Cl)cnc3[nH]cc(c23)C1=O [Example 37, (R)-2-(6-chloro-3-oxopyrrolo[4,3,2-de][2,6]naphthyridin-4(1H,3H,5H)-yl)-N—((S)-1-cyanobutan-2-yl)-3-methylbutanamide] |
| 631 | 10000 | CC[C@H](C(=O)NC(C)CO)N1Cc2ccnc3[nH]cc(c23)C1=O (stereo partly drawn) [Example 69, (2R)—N-(1-hydroxypropan-2-yl)-2-(3-oxopyrrolo[4,3,2-de][2,6]naphthyridin-4(1H,3H,5H)-yl)butanamide] |
| 3980 | 6310 | O=C1c2ccnc3[nH]cc(c23)CN1C1CCNCC1 [Example 2, 4-(piperidin-4-yl)-3,4-dihydropyrrolo[4,3,2-de][2,6]naphthyridin-5(1H)-one] |
| 63.1 | 1580 | CC(C)[C@H](C(=O)N1CCS(=O)(=O)C1)N1Cc2c(F)cnc3[nH]cc(c23)C1=O [Example 77, (R)-4-(1-(1,1-dioxidothiazolidin-3-yl)-3-methyl-1-oxobutan-2-yl)-6-fluoro-4,5-dihydropyrrolo[4,3,2-de][2,6]naphthyridin-3(1H)-one] |
| 794 | 10000 | CC[C@H](C(=O)N1CCC(COC)C1)N1Cc2ccnc3[nH]cc(c23)C1=O (stereo partly drawn) [Example 60, 4-((2R)-1-(3-(methoxymethyl)pyrrolidin-1-yl)-1-oxobutan-2-yl)-4,5-dihydropyrrolo[4,3,2-de][2,6]naphthyridin-3(1 H)-one] |
| 126 | 2510 | CC(C)[C@H](C(=O)NC1CCS(=O)(=O)CC1)N1Cc2c(F)cnc3[nH]cc(c23)C1=O [Example 47, (R)—N-(1,1-dioxidotetrahydro-2H-thiopyran-4-yl)-2-(6-fluoro-3-oxopyrrolo[4,3,2-de][2,6]naphthyridin-4(1H,3H,5H)-yl)-3-methylbutanamide] |
